SMILES strings stand for the structures. Read-outs that look alike come from different tables or passages of the source. Some results are limits rather than exact numbers.

Assay [1] concerns the target Caf1 (Homo sapiens, UniProt Q9UIV1). As to the kind of experiment: Fluorescence-based biochemical assay of Caf1 ribonuclease activity.
Experimental: Following LC–MS and solubility analysis, five compounds were evaluated for their ability to inhibit Caf1 activity using a fluorescence-based biochemical assay (Fig. 1B).[22]
Reactions contained no enzyme (control), complete reactions (enzyme) or complete reactions in the presence of the indicated compound. […] Error bars represent the standard deviation.
Assay [2] addresses T1, PARN (Homo sapiens, UniProt O95453).
T1 sequence (O95453 1-639): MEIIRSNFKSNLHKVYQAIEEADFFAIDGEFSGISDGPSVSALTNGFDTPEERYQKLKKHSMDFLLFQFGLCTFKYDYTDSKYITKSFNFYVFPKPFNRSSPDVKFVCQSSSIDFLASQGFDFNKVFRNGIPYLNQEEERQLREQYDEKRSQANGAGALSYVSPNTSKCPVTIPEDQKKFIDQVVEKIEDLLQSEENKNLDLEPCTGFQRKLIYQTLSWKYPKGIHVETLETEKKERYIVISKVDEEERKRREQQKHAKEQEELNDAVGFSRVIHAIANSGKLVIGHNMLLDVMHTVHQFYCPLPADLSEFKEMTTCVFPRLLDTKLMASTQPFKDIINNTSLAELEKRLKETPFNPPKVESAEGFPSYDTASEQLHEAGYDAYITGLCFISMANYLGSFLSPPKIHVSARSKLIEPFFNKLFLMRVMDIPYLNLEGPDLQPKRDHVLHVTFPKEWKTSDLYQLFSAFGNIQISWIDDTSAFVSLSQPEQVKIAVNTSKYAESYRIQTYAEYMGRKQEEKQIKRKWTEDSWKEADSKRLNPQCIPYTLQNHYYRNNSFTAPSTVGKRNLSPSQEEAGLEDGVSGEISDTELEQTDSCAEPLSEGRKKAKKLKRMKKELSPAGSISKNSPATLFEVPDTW
In words: Fluorescence-based biochemical assay of PARN ribonuclease activity. The following applies: for IC50: fluorescence-based biochemical assay, ± standard error of the mean (n = 3); for inhibition of PARN ribonuclease activity (in words): Fig. 3, compounds used at 10 μM (5h–k). As for the experimental part: The selectivity of the compounds was determined by comparing their activities against Caf1 and two related deadenylase enzymes: the PARN ribonuclease, which has a conserved nuclease domain similar to that of Caf1, and Ccr4, whose biological function is related to Caf1, but which contains a dissimilar EEP-type nuclease domain.[22]
Error bars represent the standard deviation.

Setting [3] is: read-out: IC50 (Caf1), fluorescence-based biochemical assay, ± standard error of the mean (n = 3).

Sequence of Caf1 (Q9UIV1 whole entry): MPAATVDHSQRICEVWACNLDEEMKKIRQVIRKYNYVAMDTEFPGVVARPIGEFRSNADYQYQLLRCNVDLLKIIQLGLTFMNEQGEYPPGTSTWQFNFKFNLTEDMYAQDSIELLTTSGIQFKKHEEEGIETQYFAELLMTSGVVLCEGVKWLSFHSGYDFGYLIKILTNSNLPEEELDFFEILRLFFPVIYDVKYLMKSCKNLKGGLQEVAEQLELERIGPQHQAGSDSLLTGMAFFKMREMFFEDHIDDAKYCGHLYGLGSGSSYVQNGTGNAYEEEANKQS

One may read the IC50 as the concentration that inhibits the measured activity by half. On to `CCCCOCCCn1cnc2[nH]c(=O)n(O)c(=O)c21` [Compound 5g], for which the concentration for half-maximal inhibition (IC50) in assay [1] (setting [3]) is 20.6 ± 5.8 µM.

Take `Cn1c(=O)n(O)c(=O)c2c1ncn2CCc1ccccc1` [Compound 8a]: the concentration for half-maximal inhibition (IC50) in assay [1] (setting [3]) is 9.3 ± 1.7 µM.

As to `O=c1[nH]c2ncn(CCCc3ccccc3)c2c(=O)n1O` [Compound 5f], the IC50 in assay [1] (setting [3]) was 13.3 ± 2.3 µM.

As to `CN(C)CCCn1c(=O)n(O)c(=O)c2c1ncn2CCc1ccccc1` [Compound 8j], the “activity versus PARN (in words)” value in assay [2] (Table 2, Fig. 3, 3 μM) is listed as “displayed reduced activity versus PARN”. The IC50 in assay [2] is 23.9 ± 3.7 µM; in assay [1] (setting [3]) it was 0.59 ± 0.11 µM. For the same compound, the “increased activity against Caf1 compared to compound 5a” value in assay [1] was greater than 10 fold. For the same compound, in assay [1] (compared with the inhibitors of ref 22), the “potency against Caf1 relative to all previously identified compounds” value is greater than 20 fold.

As to `O=c1[nH]c2ncsc2c(=O)n1O` [NSC-116567], the half-inhibitory concentration (IC50) in assay [1] (setting [3]) stood at 28.7 ± 3.8 µM.

As to `O=c1[nH]c2ncn(CCc3ccccn3)c2c(=O)n1O` [Compound 5k], in assay [2], the “inhibition of PARN ribonuclease activity (in words)” value (“inhibition” below) was “also inhibited the related deadenylase PARN”. Further, in assay [1] (setting [3]), the IC50 was 4 ± 1.1 µM.

With `O=c1[nH]c2cnn(-c3ccccc3)c2c(=O)n1O` [NSC-104148], the IC50 in assay [1] (setting [3]) was determined as 38.6 ± 2.79 µM.

For `O=c1[nH]c2ncn(Cc3ccccc3)c2c(=O)n1O` [Compound 5a], the half-inhibitory concentration (IC50) in assay [2] stood at 84.1 ± 6.7 µM; in assay [1], 22.8 ± 0.1 µM; in assay [1] (setting [3]) it was 10.4 ± 0.4 µM.

On to `O=c1[nH]c2ncn(CCc3cccs3)c2c(=O)n1O` [Compound 5h], for which the “inhibition” value in assay [2] is “also inhibited the related deadenylase PARN”. Further, the IC50 in assay [1] (setting [3]) came out at 3.6 ± 1.1 µM.

Regarding `O=c1[nH]c2ncn(CCc3ccccc3)c2c(=O)n1O` [Compound 5j], in assay [2], the “inhibition” value is reported as “also inhibited the related deadenylase PARN”.

As to `O=c1[nH]c2cccnc2c(=O)n1O` [NSC-193557], the IC50 in assay [1] (setting [3]) came out at 525 ± 13.9 µM.

Take `O=c1c2c(ncn2CCc2ccccc2)n(CCN2CCOCC2)c(=O)n1O` [Compound 8k]: the IC50 in assay [1] (setting [3]) stood at 8.7 ± 0.3 µM.

With `O=c1[nH]c2ncn(Cc3cccnc3)c2c(=O)n1O` [Compound 5d], the IC50 in assay [2] came to 125 ± 32 µM; in assay [1] (setting [3]), 6.6 ± 0.7 µM.

Regarding `O=c1c2c(ncn2CCc2ccccc2)n(Cc2ccccc2)c(=O)n1O` [Compound 8i], the 50% inhibitory concentration (IC50) in assay [1] (setting [3]) amounted to 14.5 ± 0.9 µM.

With `O=c1[nH]c2ncn(Cc3ccccn3)c2c(=O)n1O` [Compound 5c], the figures for the concentration for half-maximal inhibition (IC50) in assay [2] and in assay [1] (setting [3]) were 119 ± 25 µM and 10.6 ± 2.7 µM, respectively.

`O=c1[nH]c2ncn(Cc3ccncc3)c2c(=O)n1O` [Compound 5e] displayed a half-maximal inhibitory concentration (IC50) in assay [2] of 245 ± 20 µM.

Source of the values: paper PMC4577731, “Discovery, synthesis and biochemical profiling of purine-2,6-dione derivatives as inhibitors of the human poly(A)-selective ribonuclease Caf1” (Bioorganic & Medicinal Chemistry Letters, 2015).
